Results published in patent EP4578855A1, “PROLYL HYDROXYLASE INHIBITOR AND USE THEREOF” (Suzhong Pharmaceutical Group Co., Ltd., priority 2022, dated 2024).

target: T1, PHD2 enzyme (Homo sapiens, UniProt Q9GZT9); experiment: Detection of PHD2 enzyme activity inhibition (FITC-HIF1α tracer, mP read-out); type: biochemical; conditions: test concentration from 10 µM, diluted 3 times into 10 concentrations; read-out: IC50
T1 construct: purchased Active motif
Experimental: (1) A 1×Assay buffer was prepared. […] 100 nL of 100% DMSO was added into a negative control well and a positive control well respectively. (3) An enzyme solution with 2 times final concentration was prepared with the 1×Assay buffer. (4) 5 µL of the enzyme solution with 2 times final concentration was added into a compound well and the positive control well respectively. (5) 5 µL of the 1 ×Assay buffer was added into the negative control well. (6) The 384-well plate was centrifuged at 1000 rpm for 30 seconds, oscillated and mixed evenly, and then incubated for 15 minutes. (7) A tracer solution with 2 times final concentration was prepared with the 1×Assay buffer, and 5.0 µL of the tracer solution with 2 times final concentration was added to start the reaction.

T1 sequence (Q9GZT9 whole entry, species assumed): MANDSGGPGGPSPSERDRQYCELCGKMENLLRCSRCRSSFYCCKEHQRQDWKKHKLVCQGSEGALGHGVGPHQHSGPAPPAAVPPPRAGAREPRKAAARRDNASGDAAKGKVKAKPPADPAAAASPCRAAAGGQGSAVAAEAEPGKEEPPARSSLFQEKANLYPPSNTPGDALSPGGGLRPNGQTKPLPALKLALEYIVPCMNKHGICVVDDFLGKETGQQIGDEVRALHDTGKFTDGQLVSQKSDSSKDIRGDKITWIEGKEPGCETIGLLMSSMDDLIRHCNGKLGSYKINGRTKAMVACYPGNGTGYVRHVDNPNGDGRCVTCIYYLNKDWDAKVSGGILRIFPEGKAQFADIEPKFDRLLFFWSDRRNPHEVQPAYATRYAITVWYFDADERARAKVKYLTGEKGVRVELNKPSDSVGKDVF

| IC50 [nM] | SMILES |
| --- | --- |
| 19.8 | O=C(O)CNC(=O)c1c(O)cc(Oc2ccccc2)n2ncnc12 [Compound in Embodiment 1] |
| 34.8 | O=C(O)CNC(=O)c1c(O)cc(Oc2ccccc2Cl)n2ncnc12 [Compound in Embodiment 2, (5-(2-chlorophenoxy)-7-hydroxy-[1,2,4]triazolyl[1,5-a]pyridine-8-carbonyl)glycine] |
| 30.2 | O=C(O)CNC(=O)c1c(O)cc(Oc2cccc(Cl)c2)n2ncnc12 [Compound in Embodiment 3, (5-(3-chlorophenoxy)-7-hydroxy-[1,2,4]triazolyl[1,5-a]pyridine-8-carbonyl)glycine] |
| 33.3 | O=C(O)CNC(=O)c1c(O)cc(Oc2ccc(Cl)cc2)n2ncnc12 [Compound in Embodiment 4, (5-(4-chlorophenoxy)-7-hydroxy-[1,2,4]triazolyl[1,5-a]pyridine-8-carbonyl)glycine] |
| 44.1 | Cc1ccc(Oc2cc(O)c(C(=O)NCC(=O)O)c3ncnn23)cc1 [Compound in Embodiment 5, (5-(p-tolyloxy)-7-hydroxy-[1,2,4]triazolyl[1,5-a]pyridine-8-carbonyl)glycine] |
| 47.6 | COc1ccc(Oc2cc(O)c(C(=O)NCC(=O)O)c3ncnn23)cc1 [Compound in Embodiment 6, (5-(p-methoxyphenoxy)-7-hydroxy-[1,2,4]triazolyl[1,5-a]pyridine-8-carbonyl)glycine] |
| 34.1 | O=C(O)CNC(=O)c1c(O)cc(Oc2cccc(N3CCOCC3)c2)n2ncnc12 [Compound in Embodiment 7, (5-(3-morpholinphenoxy)-7-hydroxy-[1,2,4]triazolyl[1,5-a]pyridine-8-carbonyl)glycine] |
| 35.4 | O=C(O)CNC(=O)c1c(O)cc(Oc2ccc(F)cc2)n2ncnc12 [Compound in Embodiment 8, (5-(4-fluorophenoxy)-7-hydroxy-[1,2,4]triazolyl[1,5-a]pyridine-8-carbonyl)glycine] |
| 34 | CCCOc1cc(O)c(C(=O)NCC(=O)O)c2ncnn12 [Compound in Embodiment 9, (5-(propoxy)-7-hydroxy-[1,2,4]triazolyl[1,5-a]pyridine-8-carbonyl)glycine] |
| 46.7 | O=C(O)CNC(=O)c1c(O)cc(C#Cc2ccccc2)n2ncnc12 [Compound in Embodiment 10, [(7-hydroxy-5-(phenylethynyl)-[1,2,4]triazolo[1,5-a]pyridine-8-carbonyl)amino]acetic acid] |
| 31.3 | O=C(O)CNC(=O)c1c(O)cc(C=Cc2ccccc2)n2ncnc12 [Compound in Embodiment 11, [(7-hydroxy-5-(styryl)-[1,2,4]triazolo[1,5-a]pyridine-8-carbonyl)amino]acetic acid] |

tested on: human hepatocarcinoma cell line Hep3B; experiment: In-vitro erythropoietin (EPO)-inducing activity experiment (EPO ELISA, OD450); type: cell-based; conditions: Homo sapiens, Hep3B, 24 h, Hep3B cells, incubated 24 hours at 37°C
Experimental: In-vitro erythropoietin (EPO)-inducing activities of the compounds in Embodiments 10 to 12 were evaluated by using a human hepatocarcinoma cell line Hep3B (ATCC). Hep3B cells were cultured in an EMEM medium (Eagle's Minimum Essential Medium) at 37°C in the presence of 10% fetal bovine serum (FBS). Experimental steps were as follows: • (1) Cell preparation: the cells were inoculated in a 96-well plate, and cell plating was carried out according to an amount of 100 µL per well based on 2*10~4 per well. • (2) Preparation of compound concentration gradient: 100 µM, 20 µM, 2-parallel well detection. A solution with 200 times final concentration was prepared in a 96-well plate, the compound was diluted 200/3 times by using a cell culture medium, and then 50 µL of the compound was sucked for drug administration to the cells. 50 µL of DMSO-containing culture solution was added into a negative control well to make a final concentration contain 5 ‰ DMSO, and 50 µL of positive compound with the highest concentration was added into a positive control well to incubate the cells at 37°C for 24 hours. • (3) The reaction plate was washed twice with 1X Wash Buffer according to about 400 µL per well. • (4) 100 µL of diluted standard (comprising a standard blank control) was added into an appropriate well. • (5) 50 µL of sample and 50 µL of Sample Diluent were added into a sample well. • (6) 50 µL of 1X Biotin Conjugated Antibody were added into all wells to incubate the cells at room temperature for 1 hour. • (7) The reaction plate was washed with 1X Wash Buffer for 6 times according to about 400 µL per well. • (8) 100 µL of 1X Streptavidin-HRP was added in to each well to incubate the cells at room temperature for 15 minutes. • (9) The reaction plate was washed with 1X Wash Buffer for 6 times according to about 400 µL per well. • (10) 100 µL of TMB Substrate Solution was added into each well to incubate the cells at room temperature for 10 minutes. • (11) 100 µL of Stop Solution was added into each well. • (12) OD450 was read by EnSight.
The EPO-inducing activities of the compounds were expressed as the concentration for 50% of maximal effect (EC50).

| EC50 [nM] | SMILES |
| --- | --- |
| 6460 | O=C(O)CNC(=O)c1c(O)cc(C#Cc2ccccc2)n2ncnc12 [Compound in Embodiment 10, [(7-hydroxy-5-(phenylethynyl)-[1,2,4]triazolo[1,5-a]pyridine-8-carbonyl)amino]acetic acid] |
| 1790 | O=C(O)CNC(=O)c1c(O)cc(C=Cc2ccccc2)n2ncnc12 [Compound in Embodiment 11, [(7-hydroxy-5-(styryl)-[1,2,4]triazolo[1,5-a]pyridine-8-carbonyl)amino]acetic acid] |
| 13800 | Cc1nc(C(=O)NCC(=O)O)c(O)c2ccc(Oc3ccccc3)cc12 [FG-4592, Roxadustat, reference compound] |
